Counter-ions that a name gives are not always drawn.

The first test relates to Angiotensin II (aortic blood vessel of a rabbit). Nature of the test: Angiotensin II antagonistic effect, inhibition of A II-induced isometric tension change of isolated rabbit aortic blood vessel. The class given is cell-based. The conditions noted are these: Oryctolagus cuniculus, 0.25 h; Concn. of drug substance 10^-5 M; A II 4×10^-9 M; 15 minutes treatment; read-out: Potency of inhibition. As to the method: Angiotensin II (hereinafter referred to briefly as A II) antagonistic effect of the compound (I) of the present invention (aortic blood vessel of a rabbit). The blood-vessel preparation and reaction were done in accordance with the method as described in "European Journal of Pharmacology", vol. 18, pp. 316 (1972). While employing A II in the concentration of 4×10^-9M, the potency of inhibition was calculated by the following equation from changes in isometric tension of the blood vessel brought about by A II and that found after treatment with a test drug substance for 15 minutes, respectively. [formula] where; T1 =Change in isometric tension of the blood vessel brought about by A II without treatment with a test drug substance (g) T2 =Change in tension found after treatment with a test drug substance (g)
Usually inhibition stands for the share of the control response that was lost under treatment. As to `O=C(O)Cc1nc(-c2ccccc2)n(Cc2ccccc2)c1Cl`, the inhibition at 10 µM came out at 10%. Turning to `O=C(O)c1c(Cl)nc(-c2ccccc2)n1Cc1ccccc1`, the inhibition at 10 µM was found to be 5%. As to `O=C(O)CCc1c(Cl)nc(-c2ccccc2)n1Cc1ccccc1`, the inhibition at 10 µM turned out to be 13%. Still for that read-out and setting: next, `COC(=O)Cc1cnc(-c2ccccc2)n1Cc1ccc([N+](=O)[O-])cc1`: 38%. For `NC(=O)Cc1c(Cl)nc(-c2ccccc2)n1Cc1ccccc1`, the inhibition at 10 µM came out at 20%.

As for `CN(C)c1ccc(-c2nc(Cl)c(CC(N)=O)n2Cc2ccccc2)cc1`, the inhibition at 10 µM stood at 10%.

`CN(C)c1ccc(-c2nc(Cl)c(C(N)=O)n2Cc2ccccc2)cc1`: the inhibition at 10 µM was found to be 18%.

Consider `Cc1ccc(-c2ncc(CC(=O)O)n2Cc2ccccc2)cc1`, for which the inhibition at 10 µM stood at 5%. On to `COc1ccc(-c2ncc(CC(=O)O)n2Cc2ccccc2)cc1`, for which the inhibition at 10 µM came to 5%.

Take `CCCCn1c(-c2ccccc2)nc(Cl)c1CC(=O)O` [1-n-butyl-4-chloro-2-phenylimidazole-5-acetic acid]: the inhibition at 10 µM was 25%. For `O=C(O)Cc1c(Cl)nc(-c2ccccc2)n1CCc1ccccc1` [4-chloro-2-phenyl-1-phenethylimidazole-5-acetic acid hydrochloride], the inhibition at 10 µM came to 12%.

Still in this test, the particulars now being: Oryctolagus cuniculus, 0.25 h; Concn. of drug substance 10^-6 M; A II 4×10^-9 M; 15 minutes treatment; read-out: Potency of inhibition.
Take `CCCCc1nc(CC(=O)O)c(Cl)n1Cc1ccccc1`: the inhibition at 1 µM was 22%. Consider `O=C(O)Cc1nc(C2CCCC2)n(Cc2ccccc2)c1Cl`, for which the inhibition at 1 µM worked out at 10%. Same read-out and setting: next, `CCCCc1nc(CC(=O)O)c(Cl)n1Cc1ccccc1Cl`: 30%; `CCCCc1nc(Cl)c(CC(N)=O)n1Cc1ccccc1` [1-Benzyl-2-butyl-4-chloroimidazole-5-acetamide]: 19%.

Values taken from patent US4340598A, “Hypotensive imidazole derivatives” (Takeda Chemical Industries, Ltd., priority 1979, dated 1982).
